Experimental data published in the supplement of paper PMC11061612.

Assays:
U-698-M [1] = assay: Bliss excess, mean over the matrix (fraction); higher = more synergy; conditions: first compound max 1 µM, U-[…], B-Cell Non-Hodgkin's Lymphoma
Outline: (§1)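 Bliss excess equals the observed combination effect minus the expected value EA + EB − EA·EB, where EA and EB are the effects of each agent alone. Combination Emax is the second-highest inhibition within the matrix. Inhibition was scaled from CellTiter-Glo 2.0 luminescence, with 0 set by vehicle wells and 1 by blank wells, after 72 hours of two-drug dosing of cells plated in 1536-well plates.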

U-698-M [2] = assay: combination Emax (second highest fraction inhibited in the dose matrix, 72 h); higher = more inhibition; conditions: first compound max 1 µM, B-Cell Non-Hodgkin's Lymphoma
Outline: as §1

CN(CCO)CC[C@H](CSc1ccccc1)Nc1ccc(S(=O)(=O)NC(=O)c2ccc(N3CCC([C@@H](O)c4ccccc4-c4ccc(Cl)cc4)CC3)cc2)cc1S(=O)(=O)C(F)(F)F [AZD4320] + C=CCn1c(=O)c2cnc(Nc3ccc(N4CCN(C)CC4)cc3)nc2n1-c1cccc(C(C)(C)O)n1 [AZD1775]
Bliss excess (U-698-M [1]; partner max 1 µM): -0.0221 | combination Emax (U-698-M [2]; partner max 1 µM): 0.931

CN(CCO)CC[C@H](CSc1ccccc1)Nc1ccc(S(=O)(=O)NC(=O)c2ccc(N3CCC([C@@H](O)c4ccccc4-c4ccc(Cl)cc4)CC3)cc2)cc1S(=O)(=O)C(F)(F)F [AZD4320] + CC(=O)O[C@H]1C(=O)[C@@]2(C)[C@H]([C@H](OC(=O)c3ccccc3)[C@]3(O)C[C@H](OC(=O)[C@H](O)[C@@H](NC(=O)c4ccccc4)c4ccccc4)C(C)=C1C3(C)C)[C@]1(OC(C)=O)CO[C@@H]1C[C@@H]2O [Paclitaxel]
Bliss excess (U-698-M [1]; partner max 3 µM, 7x7): -0.0109 | combination Emax (U-698-M [2]; partner max 3 µM, 7x7, may be a limit of the assay): 1

CN(CCO)CC[C@H](CSc1ccccc1)Nc1ccc(S(=O)(=O)NC(=O)c2ccc(N3CCC([C@@H](O)c4ccccc4-c4ccc(Cl)cc4)CC3)cc2)cc1S(=O)(=O)C(F)(F)F [AZD4320] + CCN(CCO)CCCOc1ccc2c(Nc3cc(CC(=O)Nc4cccc(F)c4)[nH]n3)ncnc2c1 [AZD2811]
Bliss excess (U-698-M [1]; partner max 1 µM, 7x7): -0.0275 | combination Emax (U-698-M [2]; partner max 1 µM, 7x7): 0.138

CN(CCO)CC[C@H](CSc1ccccc1)Nc1ccc(S(=O)(=O)NC(=O)c2ccc(N3CCC([C@@H](O)c4ccccc4-c4ccc(Cl)cc4)CC3)cc2)cc1S(=O)(=O)C(F)(F)F [AZD4320] + CN(C)CCCOc1ccc(-c2ccc3ncc4c(c3c2)n(C2CCOCC2)c(=O)n4C)cn1 [AZD0156]
Bliss excess (U-698-M [1]; partner max 1 µM, 7x7): -0.0291 | combination Emax (U-698-M [2]; partner max 1 µM, 7x7): 0.183

CN(CCO)CC[C@H](CSc1ccccc1)Nc1ccc(S(=O)(=O)NC(=O)c2ccc(N3CCC([C@@H](O)c4ccccc4-c4ccc(Cl)cc4)CC3)cc2)cc1S(=O)(=O)C(F)(F)F [AZD4320] + CS(=O)(=O)CCNCc1ccc(-c2ccc3ncnc(Nc4ccc(OCc5cccc(F)c5)c(Cl)c4)c3c2)o1 [Lapatinib]
Bliss excess (U-698-M [1]; partner max 10 µM, 7x7): -0.0415 | combination Emax (U-698-M [2]; partner max 10 µM, 7x7): 0.551

CN(CCO)CC[C@H](CSc1ccccc1)Nc1ccc(S(=O)(=O)NC(=O)c2ccc(N3CCC([C@@H](O)c4ccccc4-c4ccc(Cl)cc4)CC3)cc2)cc1S(=O)(=O)C(F)(F)F [AZD4320] + C[C@@H]1COCCN1C2=NC(=NC(=C2)C3(CC3)[S@](=N)(=O)C)C4=C5C=CNC5=NC=C4 [AZD6738]
Bliss excess (U-698-M [1]; partner max 10 µM, 7x7): -0.0427 | combination Emax (U-698-M [2]; partner max 10 µM, 7x7): 0.773

CN(CCO)CC[C@H](CSc1ccccc1)Nc1ccc(S(=O)(=O)NC(=O)c2ccc(N3CCC([C@@H](O)c4ccccc4-c4ccc(Cl)cc4)CC3)cc2)cc1S(=O)(=O)C(F)(F)F [AZD4320] + C[C@@H](Nc1cc(F)cc(F)c1)c1cc(C(=O)N(C)C)cc2c(=O)cc(N3CCOCC3)oc12 [AZD8186]
Bliss excess (U-698-M [1]; partner max 3 µM, 7x7): 0.0074 | combination Emax (U-698-M [2]; partner max 3 µM, 7x7): 0.348

CN(CCO)CC[C@H](CSc1ccccc1)Nc1ccc(S(=O)(=O)NC(=O)c2ccc(N3CCC([C@@H](O)c4ccccc4-c4ccc(Cl)cc4)CC3)cc2)cc1S(=O)(=O)C(F)(F)F [AZD4320] + Cc1cc2ncnn2cc1Nc1ncc2c(n1)n(C1CCOCC1)c(=O)n2C [AZD7648]
Bliss excess (U-698-M [1]; partner max 10 µM, 7x7): -0.016 | combination Emax (U-698-M [2]; partner max 10 µM, 7x7): 0.415

CN(CCO)CC[C@H](CSc1ccccc1)Nc1ccc(S(=O)(=O)NC(=O)c2ccc(N3CCC([C@@H](O)c4ccccc4-c4ccc(Cl)cc4)CC3)cc2)cc1S(=O)(=O)C(F)(F)F [AZD4320] + Cn1cnc2c(F)c(Nc3ccc(Br)cc3Cl)c(C(=O)NOCCO)cc21 [Selumetinib]
Bliss excess (U-698-M [1]; partner max 3 µM, 7x7): 0.058 | combination Emax (U-698-M [2]; partner max 3 µM, 7x7): 0.42

CN(CCO)CC[C@H](CSc1ccccc1)Nc1ccc(S(=O)(=O)NC(=O)c2ccc(N3CCC([C@@H](O)c4ccccc4-c4ccc(Cl)cc4)CC3)cc2)cc1S(=O)(=O)C(F)(F)F [AZD4320] + Nc1ccn([C@@H]2O[C@H](CO)[C@@H](O)C2(F)F)c(=O)n1 [Gemcitabine]
Bliss excess (U-698-M [1]; partner max 0.3 µM, 7x7): -0.0159 | combination Emax (U-698-M [2]; partner max 0.3 µM, 7x7): 0.595

COc1nnc2ccc(N3CCC(c4ccc(OCCN5CCN(C)C(=O)[C@H]5C)cc4)CC3)nn12 [AZD5153] + C=CCn1c(=O)c2cnc(Nc3ccc(N4CCN(C)CC4)cc3)nc2n1-c1cccc(C(C)(C)O)n1 [AZD1775]
Bliss excess (U-698-M [1]; partner max 1 µM): -0.0574 | combination Emax (U-698-M [2]; partner max 1 µM): 0.961

COc1nnc2ccc(N3CCC(c4ccc(OCCN5CCN(C)C(=O)[C@H]5C)cc4)CC3)nn12 [AZD5153] + CC1(C)CCC(CN2CCN(c3ccc(C(=O)NS(=O)(=O)c4ccc(NCC5CCOCC5)c([N+](=O)[O-])c4)c(Oc4cnc5[nH]ccc5c4)c3)CC2)=C(c2ccc(Cl)cc2)C1 [Venetoclax]
Bliss excess (U-698-M [1]; partner max 1 µM, 7x7): -0.0463 | combination Emax (U-698-M [2]; partner max 1 µM, 7x7): 0.671

COc1nnc2ccc(N3CCC(c4ccc(OCCN5CCN(C)C(=O)[C@H]5C)cc4)CC3)nn12 [AZD5153] + CCN(CCO)CCCOc1ccc2c(Nc3cc(CC(=O)Nc4cccc(F)c4)[nH]n3)ncnc2c1 [AZD2811]
Bliss excess (U-698-M [1]; partner max 1 µM, 7x7): -0.0563 | combination Emax (U-698-M [2]; partner max 1 µM, 7x7): 0.673

Cc1c2c(nn1C)CSCc1cc(n(C)n1)CSc1cc(c3ccccc3c1)OCCCc1c(C(=O)O)n(C)c3c-2c(Cl)ccc13 [AZD5991] + C=CCn1c(=O)c2cnc(Nc3ccc(N4CCN(C)CC4)cc3)nc2n1-c1cccc(C(C)(C)O)n1 [AZD1775]
combination Emax (U-698-M [2]; partner max 1 µM, may be a limit of the assay): 1
